In patent US20260144805A1, “CANNABIDIOL COMPOSITIONS FOR USE IN THE TREATMENT OF NEURODEGENERATIVE AND NEUROLOGICAL DISORDERS” (JAZZ PHARMACEUTICALS RESEARCH UK LIMITED, priority 2022, published 2026):

Key:
Format in all cases: in vivo
[1] = test system: valproic acid-induced autism spectrum disorder (ASD) mouse model; test: Valproic acid-induced ASD model, social behavior (Example 6, Table P); set-up: key: +: improvement; Ø: no change; −: not tested; conditions: 0.125 mg/kg I.P.
Description: (§1) The main objective of the following study was to assess the effect of the drug substance (DS) of Example 1 in ameliorating autism-like behavior in valproic acid-induced autism spectrum disorder (ASD) mouse model (FIGS. 19A-B).

[2] = test system: valproic acid-induced autism spectrum disorder (ASD) mouse model; test: Valproic acid-induced ASD model, autism-like behaviors, DS vs sCBD and risperidone (Example 6, Table P); set-up: key to Adult open field hyperactivity (spontaneous LMA on day 1) / Adult open field hyperactivity (LMA on day 2) / Adult marble burying / Adult grooming / Juvenile vocalisation: +: improvement; Ø: no change; −: not tested; conditions: 0.125 mg/kg I.P.
Description: as §1

[3] = test system: rat VPA model; test: Irritability-like behaviour: bottle brush test in rat VPA model, juvenile P30 and adult (Example 5; DS = DS-E); conditions: risperidone 0.125 mg/kg
Method: (§2) Time-mated female Wistar rats were administered a single dose of valproic acid (VPA, 600 mg/kg, i.p.) on gestational day 12.5. Male offspring were delivered and confirmation of the VPA induced developmental deficit was rapidly achieved by examination of characteristic “tail kinks” in the juvenile animals. The timeline of experiments is outlined in FIG. 8 and animals were randomly allocated to treatment groups (Table O).
(§3) Control animals were administered sterile saline (0.9% w/v, i.p.) in utero and the vehicle control (ethanol: Kolliphor HS15: saline (1:1:18, v/v/v), i.p.
To test irritability-like behavior we employed the bottle-brush test modified for rats (Riittinen et al. 1986 Dev Psychobiol 19:105-111). Irritability-like behavior was examined by measuring aggressive and defensive responses during the bottle-brush test carried out in juvenile animals immediately after play behavior evaluation at P30 and again in adult animals on P59. Irritability-like behavior testing was performed under dark conditions with a red light and infrared camera recording. Testing consisted of 10 trials per rat in plastic cages (377×325×170 mm) with fresh bedding. During each trial, the rat was placed at the back of the cage. A bottle-brush was rotated toward the animal's whiskers (from the front of the cage). The brush was rotated around the whiskers of the rat for approximately 1 second. The brush was then rotated back to the front of the cage where it hangs vertically for approximately 2 seconds, during which behavioural responses were recorded. An intertrial interval of 10 second was used.
Employing video analysis of the test, the following were scored as aggressive responses: smelling the brush, biting the brush (during the initial phase of rotating the brush forward and back to the starting position), boxing the target, following the brush, exploring the brush (using paws or mouth to manipulate the brush without biting or boxing), mounting the brush, and delayed biting (during the 2 s that the brush hung at the starting position). Additionally, the following were scored as defensive responses: escaping from the brush, digging, burying, jumping, climbing, vocalization, freezing, and grooming. Frequency of each response and the sum of aggressive and defensive behaviours were recorded.
All data was assessed for outliers (ROUT; Prism V9.02) and then normality using D'Agostino and Pearson normality test for n=8, or Shapiro-Wilks test for n<8 or unequal groups. Data that were non-normally distributed were analysed using Kruskal-Wallis followed by planned comparisons with Dunn's correction. Normally distributed data were analysed using one-way ANOVA or two-way ANOVA followed by planned comparisons with Sidak's correction. […] Statistical significance was defined as p<0.05 using Prism 9.0.2 software for analysis.

[4] = test system: rat VPA model; test: Direct social interaction and social play P30 in rat VPA model (Example 5; DS = DS-E)
Method: as §2, §3
At postnatal day 30 and following 8 days treatment with the test compounds, animals were evaluated for juvenile play behavior. […] Animals were first allowed to individually explore the arena for 10-minute acclimatization trial (P29) and 24 hours later evaluated for social play (P30). On day of evaluation animals were scored for play activity measured by pinning (latency to, total duration and frequency), mounting (latency to, total duration and frequency) and latency, frequency and duration of social play behavior (following or approaching test partner, sniffing or social grooming). […]
All data was assessed for outliers (ROUT; Prism V9.02) and then normality using D'Agostino and Pearson normality test for n=8, or Shapiro-Wilks test for n<8 or unequal groups. […]

[5] = test system: valproic acid-induced autism spectrum disorder (ASD) mouse model; test: Valproic acid-induced ASD model, bottle-brush test (irritability) (Example 6, Table P); set-up: key: +: improvement; Ø: no change; −: not tested; conditions: 0.125 mg/kg I.P.
Description: as §1

[6] = juvenile P30, 8 days, vs VPA/VEH

**Q.** How did the “Adult active social behavior” value ([1]; control beside DS) turn out when `Cc1nc2n(c(=O)c1CCN1CCC(c3noc4cc(F)ccc34)CC1)CCCC2` [Risperidone] was run?
**A.** Ø

**Q.** What about the Juvenile play behavior ([1]; control beside DS) of the same compound?
**A.** Ø

**Q.** And the “Adult active social behavior” value ([1]; control beside sCBD)?
**A.** +

**Q.** What about the Juvenile play behavior ([1]; control beside sCBD) of the same compound?
**A.** +

**Q.** And the “Adult active social behavior” value ([1]; control beside sCBD-2)?
**A.** Ø

**Q.** And the Juvenile play behavior ([1]; control beside sCBD-2)?
**A.** Ø

**Q.** And the Adult grooming ([2]; control beside DS)?
**A.** +

**Q.** And the Adult marble burying ([2]; control beside DS)?
**A.** +

**Q.** What about the “Adult open field hyperactivity (LMA on day 2)” value ([2]; control beside DS) of the same compound?
**A.** +

**Q.** What about the “Adult open field hyperactivity (spontaneous LMA on day 1)” value ([2]; control beside DS) of the same compound?
**A.** +

**Q.** What about the Adult grooming ([2]; control beside sCBD) of the same compound?
**A.** +

**Q.** And the Adult marble burying ([2]; control beside sCBD)?
**A.** +

**Q.** What about the “Adult open field hyperactivity (LMA on day 2)” value ([2]; control beside sCBD) of the same compound?
**A.** +

**Q.** What about the “Adult open field hyperactivity (spontaneous LMA on day 1)” value ([2]; control beside sCBD) of the same compound?
**A.** +

**Q.** And the Adult marble burying ([2]; control beside sCBD-2)?
**A.** +

**Q.** And the “Adult open field hyperactivity (LMA on day 2)” value ([2]; control beside sCBD-2)?
**A.** Ø

**Q.** What about the “Adult open field hyperactivity (spontaneous LMA on day 1)” value ([2]; control beside sCBD-2) of the same compound?
**A.** +

**Q.** What about the “defensive behaviours, bottle brush” value ([3]; adult) of the same compound?
**A.** no significant effect

**Q.** What about the “aggressive behaviour, bottle brush” value ([3]; adult, all days of assessment) of the same compound?
**A.** significantly reduced

**Q.** What about the “irritability score, bottle brush” value ([3]; adult, all four assessment days) of the same compound?
**A.** significantly reduced

**Q.** What about the “aggressive responses, bottle brush” value [3, 6] of the same compound?
**A.** significantly reduced

**Q.** What about the “irritability score (aggressive + defensive), bottle brush” value [3, 6] of the same compound?
**A.** no effect

**Q.** What about the “Social duration and frequency behaviours” value ([4]; juvenile P30, risperidone 0.125 mg/kg) of the same compound?
**A.** no effect

**Q.** What about the “any measure of play or social interaction” value ([4]; juvenile animals, Risperidone 0.125 mg/kg) of the same compound?
**A.** without effect

**Q.** What about the “Adult bottle brush irritability test” value ([5]; control beside DS) of the same compound?
**A.** +

**Q.** What about the “Juvenile bottle brush irritability test” value ([5]; control beside DS) of the same compound?
**A.** Ø

**Q.** What about the “Adult bottle brush irritability test” value ([5]; control beside sCBD) of the same compound?
**A.** +

**Q.** What about the “Juvenile bottle brush irritability test” value ([5]; control beside sCBD) of the same compound?
**A.** +

**Q.** And the “Adult bottle brush irritability test” value ([5]; control beside sCBD-2)?
**A.** +

**Q.** What about the “Juvenile bottle brush irritability test” value ([5]; control beside sCBD-2) of the same compound?
**A.** +
